PubChem BioAssay (NCI)
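Cells were grown in 96-well plates and exposed to each compound for 48 hours at five concentrations; endpoints were interpolated linearly between bracketing concentrations, or set to the highest concentration if not reached. TGI is the concentration that stops growth completely.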

Columns and labels:
Assay in all cases: NCI-60 cell line screen, 48 h
HL-60(TB) leukemia = tested on: HL-60(TB) leukemia
EKVX NSCLC = tested on: EKVX NSCLC
HCT-116 colon = tested on: HCT-116 colon
HCC-2998 colon = tested on: HCC-2998 colon
SF-295 CNS = tested on: SF-295 CNS
OVCAR-8 ovarian = tested on: OVCAR-8 ovarian
MCF7 breast = tested on: MCF7 breast
UACC-257 melanoma = tested on: UACC-257 melanoma
UO-31 renal = tested on: UO-31 renal
SF-539 CNS = tested on: SF-539 CNS
HT29 colon = tested on: HT29 colon
HCT-15 colon = tested on: HCT-15 colon
MDA-MB-231 breast = tested on: MDA-MB-231 breast
DU-145 prostate = tested on: DU-145 prostate
RXF 393 renal = tested on: RXF 393 renal
T-47D breast = tested on: T-47D breast
NCI-H23 lung = tested on: NCI-H23 lung

SMILES	TGI (HL-60(TB) leukemia) [µM]	TGI (EKVX NSCLC) [µM]	TGI (HCT-116 colon) [µM]	TGI (HCC-2998 colon) [µM]	TGI (SF-295 CNS) [µM]	TGI (OVCAR-8 ovarian) [µM]	TGI (MCF7 breast) [µM]	TGI (UACC-257 melanoma) [µM]	TGI (UO-31 renal) [µM]	TGI (SF-539 CNS) [µM]	TGI (HT29 colon) [µM]	TGI (HCT-15 colon) [µM]	TGI (MDA-MB-231 breast) [µM]	TGI (DU-145 prostate) [µM]	TGI (RXF 393 renal) [µM]	TGI (T-47D breast) [µM]	TGI (NCI-H23 lung) [µM]
CC(C)/C(Cl)=N\OC(=O)Nc1cccc(F)c1	4.05	31.8	30.6	36.9	> 53.9	31.1	32.8	30	32.6	35.4	43.6	30.6	31.4	32.5	31	61.6	34.2
COC(=O)/C=C/c1ccc2c(c1)CCC2	73.6	> 100	98	> 100	> 100	> 100	> 100	> 100	> 100	> 100	> 100	> 100	> 100	> 100	> 100	> 100	> 100
O=C1/C(=C/C=C/c2ccccc2)N=C(c2ccccc2)N1C1Nc2cc3c(cc2S1)NC(N1C(=O)/C(=C/C=C/c2ccccc2)N=C1c1ccccc1)S3 (stereo unspecified)	> 100	> 100	> 100	37.2	> 100	> 100	> 100	> 100	> 100	> 100	> 100	> 100	> 100	> 100	> 100	> 100	> 100
CC(C)CNC(=O)CCc1cccc2c1oc1c(CCN)cccc12	13.3	27.6	21.5	29.3	31.6	34.1	46.1	24.8	25.2	30.3	22.6	43	31.6	33.8	31.4	37.1	26.7
CC1(c2ccc(F)cc2)CC(c2ccc(F)cc2)=C(C#N)C(=C(C#N)C#N)N1 (stereo unspecified)	30.7	31.5	30.5	28.2	37.1	54	32.5	28.9	32	78.4	32.1	31.7	43.9	28.5	28.3	31.7	36.5
CCOC(=O)c1c(N)nn2c1cc1cccccc12	> 100	> 100	> 100	> 100	86.7	73.1	> 100	71.5	–	> 100	> 100	> 100	> 100	> 100	> 100	64.4	69
C=C1C(=O)O[C@@H]2[C@H]1C[C@@H](O)[C@H](C)[C@@](O)(C(=O)/C=C/C)[C@H]2OC(=O)C(C)CC (stereo partly specified)	–	27.3	3.58	> 67.4	> 100	6.4	24.9	> 39.4	4.06	15.8	5.21	7.97	19.6	22.8	5.36	71.8	18.2
CCOC(=O)c1cc2c(ccc3cc(C(=O)OCC)[nH]c32)[nH]1	–	> 100	> 100	> 100	> 100	–	> 100	> 100	> 100	29.6	–	> 100	28.7	> 100	66.8	> 100	> 100
CC(=O)OC1CCN(C(=O)c2ccccc2)CC1CC1(c2cc3ccccc3[nH]2)OCCO1 (stereo unspecified)	53.6	> 100	> 100	> 100	> 100	> 100	> 100	> 100	> 100	–	> 100	> 100	> 100	> 100	> 100	> 100	> 100
CC(=N/NC(=S)N1CCCCC1)/C(=N\NC(=S)N1CCCCC1)c1ccccc1	–	3.43	5.83	4.48	3.82	6.24	> 22.7	4.52	4.03	10.6	4.71	4.56	> 19.8	0.973	2.82	3.99	5.16
COC(OC)C1OC(CO)C(n2cc(C)c(=O)[nH]c2=O)C1O (stereo unspecified)	–	> 100	> 100	> 100	> 100	> 100	> 100	> 100	> 100	> 100	> 100	> 100	> 100	> 100	> 100	> 100	> 100
N#Cc1c(-c2ccc(Cl)cc2)cc(-c2ccc(Nc3ccnc4cc(C(F)(F)F)ccc34)cc2)[nH]c1=O	35	> 100	> 44	> 100	> 87.1	> 100	> 100	> 100	–	18.5	> 48.9	> 100	65.8	> 48.5	22.6	14.8	> 100
O=C1/C(=C\c2ccc(Cl)cc2Cl)Sc2scc(-c3cccc([N+](=O)[O-])c3)[n+]21	–	14.3	17.8	20.5	> 68.9	29.1	15.5	18.3	13.8	–	10.9	4.87	25.1	29	14.6	57.8	31.5
COc1cc(O)cc(/C=C/c2ccc(O)cc2)c1	> 100	94.1	> 100	–	84.3	> 100	> 100	> 100	> 100	> 100	> 100	29.9	47.9	> 100	> 100	> 100	96.1
